Laboratory results taken from ChEMBL document CHEMBL1201862, “PubChem BioAssay data set” (2004).
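1) Cells in 96-well plates. 2) Compound, 48 h, 5 concentrations. 3) Linear interpolation between surrounding doses. 4) Unreached endpoint = highest concentration. At the GI50, growth is halved.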 Calls of active or inactive are those of the source. Cut-off read from the data, not from the text of the source: active = GI50 up to about 1.1 µM and inactive = higher.

Tests used:
Experiment in all cases: inhibition of tumour cell growth, NCI panel, 48 h
[1] = system: NCI-H23
[2] = system: TK-10
[3] = system: SF-268
[4] = system: UACC-62
[5] = system: UO-31
[6] = system: IGROV-1
[7] = system: DMS-273
[8] = system: K562
[9] = system: SK-OV-3
[10] = system: 786-0
[11] = system: Malme-3M
[12] = system: RPMI-8226
[13] = system: U-251
[14] = system: EKVX
[15] = system: M19-MEL
[16] = system: LOX IMVI
[17] = system: KM-20L2
[18] = system: DLD-1
[19] = system: MOLT-4
[20] = system: RXF 393
[21] = system: OVCAR-5
[22] = system: HCC 2998
[23] = system: OVCAR-8
[24] = system: NCI-H522
[25] = system: A549
[26] = system: SR
[27] = system: SK-MEL-28
[28] = system: KM12
[29] = system: SNB-78
[30] = system: CCRF-CEM
[31] = system: LXFL 529
[32] = system: SK-MEL-2
[33] = system: DMS-114
[34] = system: HOP-92
[35] = system: HCT-15
[36] = system: SN12C
[37] = system: HL-60
[38] = system: HOP-62
[39] = system: XF498
[40] = system: COLO 205
[41] = system: SK-MEL-5
[42] = system: SW-620
[43] = system: SF-539
[44] = system: NCI-H460
[45] = system: UACC-257
[46] = system: M14
[47] = system: ACHN
[48] = system: OVCAR-3
[49] = system: HT-29
[50] = system: HCT-116
[51] = system: HOP-18
[52] = system: A498
[53] = system: NCI-H226
[54] = system: SF-295
[55] = system: RXF 631
[56] = system: SNB-75
[57] = system: SNB-19
[58] = system: OVCAR-4
[59] = system: CAKI-1

SMILES: ClCc1ccc(C2OCCO2)cc1
- GI50 [1]: 12.2 µM (inactive)
- GI50 [2]: > 49 µM (inactive)
- GI50 [3]: > 100 µM (inactive)
- GI50 [4]: > 36.6 µM (inactive)
- GI50 [5]: > 40.7 µM (inactive)
- GI50 [6]: > 72.4 µM (inactive)
- GI50 [7]: 18.3 µM (inactive)
- GI50 [8]: > 31.6 µM (inactive)
- GI50 [9]: 46.9 µM (inactive)
- GI50 [10]: 23.3 µM (inactive)
- GI50 [11]: 20.3 µM (inactive)
- GI50 [12]: 21.4 µM (inactive)
- GI50 [13]: 12.2 µM (inactive)
- GI50 [14]: > 43.2 µM (inactive)
- GI50 [15]: 14 µM (inactive)
- GI50 [16]: 7.23 µM (inactive)
- GI50 [17]: > 45.9 µM (inactive)
- GI50 [18]: 17.2 µM (inactive)
- GI50 [19]: 13.8 µM (inactive)
- GI50 [20]: > 45.7 µM (inactive)
- GI50 [21]: > 48.9 µM (inactive)
- GI50 [22]: 17.8 µM (inactive)
- GI50 [23]: 17.5 µM (inactive)
- GI50 [24]: 14.8 µM (inactive)
- GI50 [25]: > 51.4 µM (inactive)
- GI50 [26]: 11.1 µM (inactive)
- GI50 [27]: > 40.7 µM (inactive)
- GI50 [28]: 12.8 µM (inactive)
- GI50 [29]: 14.4 µM (inactive)
- GI50 [30]: > 37.7 µM (inactive)
- GI50 [31]: 17.1 µM (inactive)
- GI50 [32]: 21.1 µM (inactive)
- GI50 [33]: > 24 µM (inactive)
- GI50 [34]: 18.8 µM (inactive)
- GI50 [35]: 16.7 µM
- GI50 [36]: 16.6 µM (inactive)
- GI50 [37]: 3.36 µM (inactive)
- GI50 [38]: 24.9 µM (inactive)
- GI50 [39]: 18.8 µM (inactive)
- GI50 [40]: 19.1 µM (inactive)
- GI50 [41]: 24.8 µM (inactive)
- GI50 [42]: 16.8 µM (inactive)
- GI50 [43]: > 42.3 µM (inactive)
- GI50 [44]: 19.2 µM (inactive)
- GI50 [45]: 14.5 µM (inactive)
- GI50 [46]: 13.6 µM (inactive)
- GI50 [47]: > 42.4 µM (inactive)
- GI50 [48]: 22.3 µM (inactive)
- GI50 [49]: 15.9 µM (inactive)
- GI50 [50]: > 35.6 µM (inactive)
- GI50 [51]: 37.5 µM (inactive)
- GI50 [52]: 20.8 µM (inactive)
- GI50 [53]: 16.9 µM (inactive)
- GI50 [54]: 17.9 µM (inactive)
- GI50 [55]: > 100 µM (inactive)
- GI50 [56]: 22.4 µM (inactive)
- GI50 [57]: > 43 µM (inactive)

SMILES: CC(C)c1cccc(C(C)C)c1NC(=S)Nc1ccccc1
- GI50 [1]: > 100 µM (inactive)
- GI50 [2]: > 100 µM (inactive)
- GI50 [3]: > 100 µM (inactive)
- GI50 [4]: > 100 µM (inactive)
- GI50 [5]: > 100 µM (inactive)
- GI50 [6]: > 100 µM (inactive)
- GI50 [7]: > 100 µM (inactive)
- GI50 [8]: 70.6 µM (inactive)
- GI50 [9]: > 100 µM (inactive)
- GI50 [11]: > 100 µM (inactive)
- GI50 [12]: > 100 µM (inactive)
- GI50 [13]: > 100 µM (inactive)
- GI50 [14]: > 100 µM (inactive)
- GI50 [15]: > 100 µM (inactive)
- GI50 [16]: 79.4 µM (inactive)
- GI50 [17]: > 100 µM (inactive)
- GI50 [58]: 10.8 µM (inactive)
- GI50 [18]: > 100 µM (inactive)
- GI50 [19]: > 100 µM (inactive)
- GI50 [20]: 75.5 µM (inactive)
- GI50 [21]: > 100 µM (inactive)
- GI50 [22]: > 100 µM (inactive)
- GI50 [23]: > 100 µM (inactive)
- GI50 [25]: > 100 µM (inactive)
- GI50 [26]: > 100 µM (inactive)
- GI50 [27]: > 100 µM (inactive)
- GI50 [28]: > 100 µM (inactive)
- GI50 [29]: > 100 µM (inactive)
- GI50 [30]: 41.4 µM (inactive)
- GI50 [31]: > 100 µM (inactive)
- GI50 [32]: > 100 µM (inactive)
- GI50 [33]: 43 µM (inactive)
- GI50 [34]: > 100 µM (inactive)
- GI50 [35]: > 100 µM
- GI50 [36]: > 100 µM (inactive)
- GI50 [37]: 6.81 µM (inactive)
- GI50 [38]: > 100 µM (inactive)
- GI50 [39]: 0.434 µM (active)
- GI50 [40]: > 100 µM (inactive)
- GI50 [41]: 48 µM (inactive)
- GI50 [42]: > 100 µM (inactive)
- GI50 [43]: > 100 µM (inactive)
- GI50 [44]: > 100 µM (inactive)
- GI50 [45]: > 100 µM (inactive)
- GI50 [46]: > 100 µM (inactive)
- GI50 [47]: > 100 µM (inactive)
- GI50 [48]: > 100 µM (inactive)
- GI50 [49]: > 100 µM (inactive)
- GI50 [50]: > 100 µM (inactive)
- GI50 [51]: > 100 µM (inactive)
- GI50 [52]: > 100 µM (inactive)
- GI50 [53]: > 100 µM (inactive)
- GI50 [54]: > 100 µM (inactive)
- GI50 [55]: > 100 µM (inactive)
- GI50 [56]: 36.5 µM (inactive)
- GI50 [57]: > 100 µM (inactive)

SMILES: CCOC(=O)CC1=CSC2=NCCN12
- GI50 [1]: > 100 µM (inactive)
- GI50 [2]: > 100 µM (inactive)
- GI50 [3]: > 100 µM (inactive)
- GI50 [4]: > 100 µM (inactive)
- GI50 [5]: > 100 µM (inactive)
- GI50 [6]: > 100 µM (inactive)
- GI50 [7]: > 100 µM (inactive)
- GI50 [8]: > 100 µM (inactive)
- GI50 [9]: > 100 µM (inactive)
- GI50 [59]: > 100 µM (inactive)
- GI50 [10]: > 100 µM (inactive)
- GI50 [11]: > 100 µM (inactive)
- GI50 [13]: > 100 µM (inactive)
- GI50 [14]: > 100 µM (inactive)
- GI50 [15]: > 100 µM (inactive)
- GI50 [16]: > 100 µM (inactive)
- GI50 [17]: > 100 µM (inactive)
- GI50 [58]: > 100 µM (inactive)
- GI50 [18]: > 100 µM (inactive)
- GI50 [20]: > 100 µM (inactive)
- GI50 [21]: > 100 µM (inactive)
- GI50 [22]: > 100 µM (inactive)
- GI50 [23]: > 100 µM (inactive)
- GI50 [24]: > 100 µM (inactive)
- GI50 [25]: > 100 µM (inactive)
- GI50 [27]: > 100 µM (inactive)
- GI50 [28]: > 100 µM (inactive)
- GI50 [29]: > 100 µM (inactive)
- GI50 [30]: > 100 µM (inactive)
- GI50 [31]: > 100 µM (inactive)
- GI50 [32]: > 100 µM (inactive)
- GI50 [33]: > 100 µM (inactive)
- GI50 [34]: > 100 µM (inactive)
- GI50 [35]: > 100 µM
- GI50 [36]: > 100 µM (inactive)
- GI50 [37]: > 100 µM (inactive)
- GI50 [38]: > 100 µM (inactive)
- GI50 [39]: > 100 µM (inactive)
- GI50 [40]: > 100 µM (inactive)
- GI50 [41]: > 100 µM (inactive)
- GI50 [42]: > 100 µM (inactive)
- GI50 [43]: > 100 µM (inactive)
- GI50 [44]: > 100 µM (inactive)
- GI50 [45]: > 100 µM (inactive)
- GI50 [46]: > 100 µM (inactive)
- GI50 [47]: > 100 µM (inactive)
- GI50 [48]: > 100 µM (inactive)
- GI50 [49]: > 100 µM (inactive)
- GI50 [50]: > 100 µM (inactive)
- GI50 [51]: > 100 µM (inactive)
- GI50 [52]: > 100 µM (inactive)
- GI50 [53]: > 100 µM (inactive)
- GI50 [54]: > 100 µM (inactive)
- GI50 [55]: > 100 µM (inactive)
- GI50 [56]: > 100 µM (inactive)
- GI50 [57]: > 100 µM (inactive)
